Assay [1] addresses T1, Adenosine receptor A2a (Homo sapiens, UniProt P29274). The assay can be described thus: Displacement of [3H]ZM241385 from wild type human adenosine receptor A2a expressed in HEK293 cells. On the technique in general: Displacement assays read how much labelled ligand stays bound in the presence of the test substance.
Assay [2] has as its target T1, Adenosine receptor A2a. The assay can be described thus: Displacement of [3H]ZM241385 from stabilized human adenosine receptor A2a expressed in HEK293 cells followed by receptor capturing on Biocore chips by SPR method.

Molecules are shown by their SMILES.

In ChEMBL document CHEMBL1800001, “Biophysical mapping of the adenosine A2A receptor” (J Med Chem, 2011) one finds pKi and pKd data, which are given here for three molecules.

As usually defined, the pKi is the negative decadic logarithm of the Ki, by convention in mol/L. A high value points to a small Ki. In general, pKd refers to the Kd on a negative log10 scale, so that one unit is a factor of ten. Lower therefore signals a large Kd.

T1 sequence (P29274 whole entry, looked up): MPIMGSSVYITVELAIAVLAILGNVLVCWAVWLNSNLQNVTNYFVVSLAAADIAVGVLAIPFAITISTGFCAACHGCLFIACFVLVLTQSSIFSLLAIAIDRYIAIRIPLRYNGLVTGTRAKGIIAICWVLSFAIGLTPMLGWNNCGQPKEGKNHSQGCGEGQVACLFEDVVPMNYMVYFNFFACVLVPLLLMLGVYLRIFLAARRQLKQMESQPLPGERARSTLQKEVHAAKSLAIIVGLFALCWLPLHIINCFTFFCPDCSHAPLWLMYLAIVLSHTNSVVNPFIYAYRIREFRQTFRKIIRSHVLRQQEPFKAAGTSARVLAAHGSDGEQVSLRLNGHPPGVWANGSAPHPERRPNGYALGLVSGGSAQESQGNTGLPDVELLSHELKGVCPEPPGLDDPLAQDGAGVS

In the case of `Nc1nc(-c2ccccc2O)nc(N2Cc3ccc(F)cc3C2)n1`, in assay [1], the negative logarithm of the Ki (pKi) stood at 7.9. In assay [2], this molecule gave a negative logarithm of the Kd (pKd) of 6.

In turn, `CN1CCN(C(=O)c2cccc(-c3nc(N)nc(-c4ccccc4O)n3)c2)CC1` came in with a pKi in assay [1] of 9. Besides, in assay [2], the pKd was 7.9.

`COCCOc1ccc(N2CCN(CCn3ncc4c3nc(N)n3nc(-c5ccco5)nc43)CC2)cc1` [PRELADENANT] displayed a negative-log Ki (pKi) in assay [1] of 8.8. The same molecule gave a pKd in assay [2] of 9.5.
